# Read-outs that look alike come from different tables or passages of the source.
# Tests used:
# MDA-MB-231 cells [1] = assay: MTT proliferation assay; assay type: cell-based, human; conditions: 48 hours; for effect on cell proliferation versus negative controls: 10 μM, hypoxic and normoxic conditions
# Experimental: Cells were plated at 2×10^4 cells/ml in 24-well plates (Becton-Dickinson) and allowed to settle overnight. The cells were then treated for the required time of incubation (24 hours+), with medium changes every 24 hours. At the end of the treatment, the medium was removed, and this was followed by the colorimetric 3-[4,5-dimethylthiazol-2-yl]-2,5-diphenyltetrazolium bromide ([…]) assay (Grimes et al., 1995). Briefly, 0.1 ml MU (5 mg/ml made up in the growth medium) and 0.4 ml growth medium was added in each well and the plate was incubated for 3-4 hours at 37° C. The medium was then removed from the chambers and replaced with 0.5 ml dimethyl sulfoxide (DMSO) and 0.063 ml glycine buffer (0.1 M glycine and 0.1 M NaCl; pH 10.5). Absorbance at 570 nm was determined 15 minutes after the addition of the glycine buffer. Results were calculated as means of nine repeats of each of the treatment vs. control spectrophotometer readings from individual invasion wells.
# Proliferation was indirectly measured using MTT (3-(4,5-dimethylthiazolyl-2)-2,5-diphenyltetrazolium). In principle, MTT is taken up and processed by metabolically active cells, which produce formazan as a by-product. Formazan is a purple dye which can be quantified on a spectrophotometer, providing a link between absorbance readings (570 nm) and cell number.
# Cells were plated in 24-well plates at a density of 2×10^4 cells per well and pre-treated with 1 ml of the respective drug solutions (see FIG. 5.) for 48 hours in hypoxia and normoxia. 0.1 ml of MU (1 mg/ml) diluted in 0.4 ml of media was administered to each well, followed by 4 hours of incubation in dark, normoxic conditions (MU is light—sensitive). The solution was subsequently aspirated and 0.5 ml of 99.9% DMSO was added in combination with 75 μL glycine buffer. The dye was able to dissolve in DMSO during a 15 minute—incubation on a shaking platform at 150 cycles/minute. The absorbance was read using ELX800 Universal Microplate Reader (BioTek Instruments) with the background measuring 0.04. […]
# MDA-MB-231 cells [2] = assay: Matrigel invasion assay under hypoxia; assay type: cell-based, human
# Experimental: This assay is an extension of the transverse migration assay described above. To “invade”, the cells need both (i) to move as in the transverse migration assay and (ii) secrete a proteolytic enzyme to digest their surroundings. The ability of cells to invade neighbouring tissues by enzyme secretion was therefore assessed by using a layer of Matrigel™ (BD Biosciences) spread across the porous membrane of a Transwell® insert.
# 50 μl Matrigel™ was seeded at a 1:7 dilution (10 mg/ml stock) onto the inserts and left overnight. Prior to seeding with the cells the Matrigel™ was rehydrated using medium with no additions. This medium was removed prior to seeding the cells.
# Cells were plated in a 1-5% FBS chemotactic gradient overnight (12 hours).
# Invaded cells were fixed for 15 minutes with ice-cold methanol. […] The inserts were swabbed again and then washed in water and allowed to dry. Cells were then counted using twelve separate fields of view per insert (×200 magnification). If the difference in the average number of cells invading the two control inserts was more than 40%, the experiment was rejected.
# The matrigel solidified at 37° C. normoxia overnight and was hydrated at 37° C. normoxia for 3 hours using 0.5 ml FBS-free media. 300 μL of media containing 5% FBS was administered to the lower chamber and the same amount of media containing 1% FBS was added to the upper chamber (transwell filters). 2×10^4 cells were added to the 1% solution, allowing their invasion through the matrigel along the chemotactic gradient. Cells were left to settle and invade under hypoxic conditions overnight.
# persistent current = biological target: T1, persistent current (Homo sapiens, UniProt Q14524); assay: Patch-clamp (data not shown); assay type: cell-based; conditions: 10 μM
# T1 construct: transient and persistent sodium current, using the highly invasive human breast cancer cell line MDA-MB-231; endogenous in cells; host or cells: MDA-MB-231
# MDA-MB-231 cells [3] = assay: Lateral motility (wound heal) assay; assay type: cell-based, human; conditions: 10 μM, hypoxic conditions
# Experimental: In order to determine lateral motility, a “wound-heal (“scratch”)” test was carried out, in which a scratch 504 of […] was made through the layer of cells, as shown in FIG. 5(b) which is a side sectional view of the cell culture dish. During the period of 24 hours following the formation of the scratch, the cells moved into the gap.
# 10^6 cells were plated in each 35×10 mm dish and kept in normoxic conditions to settle overnight. Each dish was marked by 15 parallel vertical lines and 3 non-overlapping horizontal lines. The media was refreshed and three wounds were made along the marked vertical lines using a 1 ml Gilson pipette tip. Floating cells were removed by 3 consecutive media washes and adherent cells were treated with 1 ml of the respective drug solution (10 μM Eleclazine/DMSO). The initial wound width (W0) was measured at 45 fixed points (where the vertical lines cross the wounds) using the graticule on a phase-contrast microscope (×10 magnification). Cells were then incubated in both normoxic and hypoxic conditions, with drug solutions being replaced every 24 hours. Wound width was measured every 12 hours and the motility of this breast cancer cell line was analysed using the “motility index” (MI=1-(Wt/W0)). A motility index of 1 accounts for complete wound closure, whereas MI=0 represents zero cell movement. […]
# MDA-MB-231 cells [4] = assay type: cell-based, human; conditions: 20 μM, 48 hours
# Experimental: Cells were seeded at a density of 5×10^4 cells/ml in 35 mm Falcon tissue culture dishes. After treatment with a given drug, the medium was removed and replaced with 800 μl of growth medium and 200 μl 0.4% trypan blue (Sigma, Dorset, UK) and incubated for 10 minutes in the incubator. The trypan blue was removed and the cells were washed once with 3 ml growth medium. For each treatment, cells from 30 random fields of view were counted under 100× magnification. The number of dead cells, stained blue, was counted in each field of view. The data were expressed as percentages of living cells out of the total number of cells in given fields of view. The percentages were averaged and differences between control and treatment were compared from at least three independent experiments.
# Cell viability and therefore drug toxicity was determined using the trypan blue assay. The procedure follows the principle that viable cells surrounded by an intact double membrane cannot absorb the trypan blue dye, whereas dead and fragmented cells can. […]
# The solution was subsequently replaced with 0.2 ml of 0.4% trypan blue (Sigma-Aldrich) and 0.8 ml of media. […] Cell viability was determined by counting the proportion of viable and dead cells in 30 fields of view on each dish (Zeiss Axiovert 25 phase contrast microscope, ×40 magnification).
# neonatal Nav1.5 = assay: Immunocytochemistry of nNav1.5 protein expression in MDA-MB-231 cells; assay type: cell-based, human; conditions: 10 μM, 24 hour treatment, normoxic and hypoxic conditions
# Experimental: Cells were pre-treated with either 10 μM Eleclazine or DMSO in both normoxic and hypoxic conditions for 24 hours. The following day, round 13 mm coverslips were placed into 24-well plates and incubated with 0.5 ml poly-L-lysine for 20 minutes. The solution was aspirated and 2×10^4 pre-treated cells were added on top of each coverslip. The wells were filled up to 0.5 ml with the respective drug solutions and cells were left to settle onto the coverslips in normoxic and hypoxic conditions overnight.
# Cells were washed with PBS and fixed by incubating coverslips with 0.5 ml 4% PFA (in PBS) for 15 minutes. Coverslips were then washed in PBS three times for 5 minutes. Half of the samples were permeabilised in 0.1% Saponin/PBS (4 minutes) followed by three 5 minute washes in PBS. Cells were blocked for 1 hour with 0.5 ml 5% BSA/PBS (pH 7.4). Coverslips were incubated with 70 μL NESOpAb (primary antibody specific for neonatal Nav1.5; 1:100 dilution) for 1 hour in a humidity chamber (room temperature). Three 5 minute PBS washes rinsed off residual NESOpAb and the secondary antibody (goat anti-rabbit IgG Alexa Fluor 568, 1:100 dilution) was administered for 1 hour in the dark. […]
# Imaging was conducted on a Zeiss axiovert 200 inverted microscope. […] The corrected total cell fluorescence was quantified using ImageJ.
# MDA-MB-231 cells [5] = conditions: 24 hours
structure (smiles),measurement,setting,value
CC[N+](CC)(CC)CC [TEA],reduction of cell proliferation,"MDA-MB-231 cells [1]; 2 mM, positive control",approximately 50%
"NC1=N[C@H](O)[C@H]2[C@H]3O[C@]4(O)O[C@@H]([C@@H](O)[C@@]2(N1)[C@@H]4O)[C@]3(O)CO [TTX, tetrodotoxin, reference compound]",effect on invasiveness,MDA-MB-231 cells [2],decreases
"O=C1c2cc(-c3ccc(OC(F)(F)F)cc3)ccc2OCCN1Cc1ncccn1 [eleclazine, 4-(pyrimidin-2-ylmethyl)-7-(4-(trifluoromethoxy)phenyl)-3,4-dihydrobenzo[f][1,4]oxazepin-5(2H)-one]",effect on persistent current,persistent current,effectively blocked
same,reduction of lateral motility,MDA-MB-231 cells [3]; after 12 hours,5%
same,reduction of lateral motility,MDA-MB-231 cells [3]; after 48 hours,30%
same,effect on cell proliferation versus negative controls,MDA-MB-231 cells [1],no statistically significant difference
same,average proportion of viable cells per field of view,MDA-MB-231 cells [4],99.96%
same,effect on invasiveness,"MDA-MB-231 cells [2]; 0.5 μM, hypoxia (1% O2), 24 h pre-incubation, invasion over 16 h",does not affect invasiveness
same,"number of cells invading, median (interquartile range)","MDA-MB-231 cells [2]; 1 μM, hypoxia (1% O2), 24 h pre-incubation, invasion over 16 h, control 175.0 (113 & 255)",131.5 (100 & 175)
same,reduction of invasiveness,"MDA-MB-231 cells [2]; 5 μM, hypoxia",approximately 50%
same,effect on invasiveness (preliminary assays),"MDA-MB-231 cells [2]; 10 μM, hypoxic conditions",drastically reduced
same,"nNav1.5 protein expression, corrected total cell fluorescence (CTCF)",neonatal Nav1.5,statistically significant reduction
OO [hydrogen peroxide],"mean detachment negative pressure, change versus untreated cells",MDA-MB-231 cells [5]; 1 μM,approximately −9%
same,"mean detachment negative pressure, change versus untreated cells",MDA-MB-231 cells [5]; 10 μM,approximately −14%
same,"mean detachment negative pressure, change versus untreated cells",MDA-MB-231 cells [5]; 100 μM,approximately −20%
"COc1ccccc1OCC(O)CN1CCN(CC(=O)Nc2c(C)cccc2C)CC1 (centres unmarked) [ranolazine, reference compound]",effect on cell proliferation versus negative controls,MDA-MB-231 cells [1],no significant effect
same,effect on invasiveness,"MDA-MB-231 cells [2]; 5 μM, hypoxia (1% O2), 24 h pre-incubation, invasion over 16 h",suppress invasiveness significantly

# Reference: patent US12605390B2, “Treatment of cancer and inhibition of metastasis” (Celex Oncology Innovations Limited, priority 2017, dated 2026)
